Test results: US8802866B2, “Pyridinylimidazolone derivatives for the inhibition of PI3 kinases” (Merck Patent GmbH, priority 2009, dated 2014)

Assays:
DNA-PK protein complex = DNA-PK protein complex (Homo sapiens, UniProt P78527); experiment: Biochemical DNA-PK assay (FlashPlate)
Protocol: The kinase assay is carried out in […] microtitre FlashPlates®, coated with streptavidin. […] The reaction is stopped by addition of 50 μl/well of 200 mM EDTA. After incubation for 30 minutes, the liquids are removed at room temperature. Each well is washed three times with 100 μl of 0.9% NaCl solution. Non-specific reaction (blank) is determined using a proprietary kinase inhibitor (10 μM). The radioactivity is measured by means of a Topcount. […] Todd Eary, J. G. Schiro, H. Huang, L. E. Burgess, E. A. Kesicki, and J. Halbrook.

[1] = biological target: recombinant PI3Kalpha (shortened form of the catalytic subunit) (Homo sapiens, UniProt P42336); experiment: BIACORE PI3K binding assay (SPR); conditions: 25° C.
Protocol: SPR measurements of the binding affinities and binding kinetics on PI3Kalpha surfaces with the aid of Biacore systems. The experiments are carried out on a Biacore S51 “Compound Characterization” or a Biacore T100 instrument utilising the default application “Kinetics/Affinity” Experimental conditions: recombinant PI3Kalpha (shortened form of the catalytic subunit, missing N terminal from about 100 to 150 aa, Mw about 110 kDa, prepared by Proteros Biostructures GmbH) is immobilised on Biacore CM5 chips (25° C., flow rate: 10 μl/min, utilising amine coupling at pH 7.40—Biacore Standard protocol). PI3Kalpha is employed in concentrations between 10 and 25 μg/ml. Depending on the duration of the injection time, immobilisation levels from 1700 to 11000 RU are achieved. The substances to be measured are added in the form of a titration series. The substance concentration is doubled for each subsequent injection. 10 different substance concentrations which cover a 500-fold dilution range are usually injected. […] Kinetic titration experiments are carried out at 25° C. with a flow rate of 30 μl/min, the sample contact time is 180 s, and the dissociation time is 240 s in a running buffer (20 mM HEPES pH7.40, 150 mM NaCl, 5 mM MgCl2, 1 mM DTT, 0.1 mM EDTA, 0.05% Tween 20) comprising 2% of DMSO. Buffer injections (as double references) identical to the sample injections are carried out in each case at the beginning of a continuous series. Solvent correction cycles (eight correction points, 1.4%-2.8% DMSO) are carried out at equal intervals. In order to condition the surface, at least five start-up cycles (buffer injections) are carried out. Data points are collected with a sample rate of 10 Hz. Surface regeneration is carried out after each measurement cycle, apart from after the solvent correction runs. For this purpose, two times 100 mM NaHCO3 pH 8.60 are injected for 30 sec. Data sets are processed and analysed using the Biacore S51 Evaluation software, version 1.2.1, or Biacore T100 Evaluation, version 2.0. Solvent-corrected and double-referenced association and dissociation phase data are adapted to a simple 1:1 interaction model with mass transport limitations.

[2] = test system: PI3K-dependent phosphorylation of PKB at Serin 473 in PC3 cells; experiment: Cellular PI3K assay (P-S473-PKB Luminex assay in PC3 cells); assay type: cell-based; conditions: Homo sapiens, PC-3, 0.5 h; PC3 cells, 30 min, serum-free, P-S473-PKB; read-out: IC50 (cell)
Protocol: The cellular assay for determination of the P-S473-PKB level is carried out as a Luminex assay in 96-well format in PC3 cells.
PC3 cells are sown out with 20,000 cells per well in 100 μl medium (45% […]/45% Ham's F12/10% FCS) and incubated on the following day for 30 min with a serial dilution of the test substance (7 concentrations) under serum-free conditions. The cells are subsequently lysed using 90 μl of lysis buffer (20 mM Tris/HCl pH 8.0, 150 mM NaCl, 1% NP40, 10% glycerol, 1% phosphatase inhibitor I, 1% phosphatase inhibitor II, 0.1% protease inhibitor cocktail III, 0.01% benzonase) per well, and the lysates are separated off from insoluble cell constituents by means of centrifugation through a 96-well filter plate (0.65 μm). The lysates are incubated overnight at 4° C. with shaking with Luminex beads to which an anti-total PKB antibody is coupled. The detection is carried out on the following day by addition of a P-S473-PKB antibody and a species-specific PE-labelled secondary antibody. The detection of P-S473-PKB is carried out by measurement in a Luminex100 instrument by determination of 100 events per cavity in a measurement time of 60 sec.

PI3Kbeta = PI3Kbeta (Homo sapiens, UniProt P42338); experiment: Biochemical PI3Kbeta assay (neomycin SPA, lipid phosphorylation); conditions: human recombinant GST-PI3K
Protocol: (§1) The efficacy of the compounds according to the invention in the inhibition of PI3K-induced lipid phosphorylation can be investigated in the following binding assay. The assay combines scintillation proximity assay (SPA) technology (Amersham) with the ability of neomycin (a polycationic antibiotic) to bind phospholipids with high affinity and specificity. […] The coating of SPA beads with neomycin allows the detection of phosphorylated lipid substrates after incubation with recombinant PI3K and radioactive ATP in the same well by trapping the radioactive phospholipids by the SPA beads owing to their specific binding to neomycin. […] After incubation at room temperature for 120 minutes with gentle stirring, the reaction was stopped by addition of 200 μl of a solution comprising 250 μg of neomycin-coated PVT-SPA beads, ATP 60 mM and EDTA 6.2 mM in PBS. The assay is incubated at room temperature for a further 60 minutes with gentle stirring in order to enable binding of the phospholipids to the neomycin-SPA beads. After precipitation of the neomycin-coated PVT-SPA beads over 5 minutes at 1500×g, radioactive Ptdlns(3)P is quantified by scintillation counting in a Wallac Micro-Beta™ plate counter.

PI3Kalpha = PI3Kalpha (Homo sapiens, UniProt P42336); experiment: Biochemical PI3Kalpha assay (neomycin SPA, lipid phosphorylation); conditions: human recombinant GST-PI3K
Protocol: as §1

Sequence of PI3Kalpha (P42336 whole entry): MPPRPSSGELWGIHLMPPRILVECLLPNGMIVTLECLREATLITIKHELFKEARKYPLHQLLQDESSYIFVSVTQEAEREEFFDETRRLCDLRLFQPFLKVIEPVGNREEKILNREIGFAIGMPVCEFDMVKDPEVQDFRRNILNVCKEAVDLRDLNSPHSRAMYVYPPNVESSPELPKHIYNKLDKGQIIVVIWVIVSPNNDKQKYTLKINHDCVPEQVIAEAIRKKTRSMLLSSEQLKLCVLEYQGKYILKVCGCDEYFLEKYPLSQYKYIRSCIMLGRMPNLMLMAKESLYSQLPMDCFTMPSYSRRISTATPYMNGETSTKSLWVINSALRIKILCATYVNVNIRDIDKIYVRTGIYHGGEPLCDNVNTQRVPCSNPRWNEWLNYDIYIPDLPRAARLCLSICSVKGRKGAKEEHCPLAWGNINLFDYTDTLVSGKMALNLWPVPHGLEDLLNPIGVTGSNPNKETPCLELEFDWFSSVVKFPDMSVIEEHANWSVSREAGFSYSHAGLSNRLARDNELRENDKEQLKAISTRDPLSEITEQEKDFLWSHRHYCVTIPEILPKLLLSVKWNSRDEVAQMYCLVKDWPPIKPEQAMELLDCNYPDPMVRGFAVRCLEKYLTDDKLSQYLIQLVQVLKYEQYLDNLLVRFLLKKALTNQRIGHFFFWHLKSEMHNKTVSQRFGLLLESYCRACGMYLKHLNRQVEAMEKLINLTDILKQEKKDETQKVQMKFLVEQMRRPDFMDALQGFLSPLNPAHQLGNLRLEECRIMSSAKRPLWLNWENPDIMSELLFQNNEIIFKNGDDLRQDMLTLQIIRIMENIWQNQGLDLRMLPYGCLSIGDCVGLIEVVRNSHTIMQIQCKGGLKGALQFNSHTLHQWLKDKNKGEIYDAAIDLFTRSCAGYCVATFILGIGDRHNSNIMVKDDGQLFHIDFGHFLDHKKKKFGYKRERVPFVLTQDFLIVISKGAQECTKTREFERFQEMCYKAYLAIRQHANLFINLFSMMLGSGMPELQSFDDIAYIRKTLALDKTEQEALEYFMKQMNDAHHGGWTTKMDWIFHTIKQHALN
Sequence of PI3Kalpha (P27986 whole entry partner): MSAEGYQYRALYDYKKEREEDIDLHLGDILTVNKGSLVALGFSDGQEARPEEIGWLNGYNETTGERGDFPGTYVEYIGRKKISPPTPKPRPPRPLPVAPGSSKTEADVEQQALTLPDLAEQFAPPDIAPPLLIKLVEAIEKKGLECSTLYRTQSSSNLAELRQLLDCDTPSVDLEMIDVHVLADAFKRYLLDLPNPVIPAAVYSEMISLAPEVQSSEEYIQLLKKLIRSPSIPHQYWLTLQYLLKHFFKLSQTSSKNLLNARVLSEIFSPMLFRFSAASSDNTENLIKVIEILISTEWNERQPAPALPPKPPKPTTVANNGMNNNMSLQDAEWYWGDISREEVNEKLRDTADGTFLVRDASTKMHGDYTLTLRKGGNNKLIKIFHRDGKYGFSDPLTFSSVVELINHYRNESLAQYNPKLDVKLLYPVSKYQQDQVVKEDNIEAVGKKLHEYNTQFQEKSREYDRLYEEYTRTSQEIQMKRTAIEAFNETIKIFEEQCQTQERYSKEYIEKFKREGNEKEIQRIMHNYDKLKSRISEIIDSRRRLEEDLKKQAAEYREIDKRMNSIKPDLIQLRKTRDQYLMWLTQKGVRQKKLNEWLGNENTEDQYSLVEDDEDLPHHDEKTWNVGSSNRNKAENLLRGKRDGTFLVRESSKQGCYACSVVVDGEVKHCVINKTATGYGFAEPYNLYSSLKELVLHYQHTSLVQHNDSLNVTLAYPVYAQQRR
Sequence of recombinant PI3Kalpha (shortened form of the catalytic subunit) (P42336 151-1068 limits assumed): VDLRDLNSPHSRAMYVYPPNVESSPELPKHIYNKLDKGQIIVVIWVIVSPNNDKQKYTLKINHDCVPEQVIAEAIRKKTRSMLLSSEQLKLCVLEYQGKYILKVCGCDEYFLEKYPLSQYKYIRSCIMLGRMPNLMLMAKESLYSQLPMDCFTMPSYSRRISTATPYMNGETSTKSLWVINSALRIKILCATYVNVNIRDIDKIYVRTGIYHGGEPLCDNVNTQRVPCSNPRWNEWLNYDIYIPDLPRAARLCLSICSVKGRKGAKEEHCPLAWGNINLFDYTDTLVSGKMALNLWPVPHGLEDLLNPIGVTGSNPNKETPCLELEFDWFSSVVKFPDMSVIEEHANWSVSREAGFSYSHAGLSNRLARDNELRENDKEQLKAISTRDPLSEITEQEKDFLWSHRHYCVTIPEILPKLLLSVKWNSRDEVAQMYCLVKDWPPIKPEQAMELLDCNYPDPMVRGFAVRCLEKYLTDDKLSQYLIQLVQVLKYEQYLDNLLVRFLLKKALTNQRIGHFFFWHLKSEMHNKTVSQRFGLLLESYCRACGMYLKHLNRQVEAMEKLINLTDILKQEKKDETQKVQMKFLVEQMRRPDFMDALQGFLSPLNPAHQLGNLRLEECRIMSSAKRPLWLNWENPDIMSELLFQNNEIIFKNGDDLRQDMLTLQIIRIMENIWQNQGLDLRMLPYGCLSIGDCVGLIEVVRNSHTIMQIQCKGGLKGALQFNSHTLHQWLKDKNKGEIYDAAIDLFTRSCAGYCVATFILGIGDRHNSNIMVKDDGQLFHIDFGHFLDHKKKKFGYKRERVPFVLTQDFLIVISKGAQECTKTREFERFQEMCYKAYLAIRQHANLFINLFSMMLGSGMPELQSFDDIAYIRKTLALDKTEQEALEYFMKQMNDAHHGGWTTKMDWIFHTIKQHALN
Sequence of PI3Kbeta (P42338 whole entry): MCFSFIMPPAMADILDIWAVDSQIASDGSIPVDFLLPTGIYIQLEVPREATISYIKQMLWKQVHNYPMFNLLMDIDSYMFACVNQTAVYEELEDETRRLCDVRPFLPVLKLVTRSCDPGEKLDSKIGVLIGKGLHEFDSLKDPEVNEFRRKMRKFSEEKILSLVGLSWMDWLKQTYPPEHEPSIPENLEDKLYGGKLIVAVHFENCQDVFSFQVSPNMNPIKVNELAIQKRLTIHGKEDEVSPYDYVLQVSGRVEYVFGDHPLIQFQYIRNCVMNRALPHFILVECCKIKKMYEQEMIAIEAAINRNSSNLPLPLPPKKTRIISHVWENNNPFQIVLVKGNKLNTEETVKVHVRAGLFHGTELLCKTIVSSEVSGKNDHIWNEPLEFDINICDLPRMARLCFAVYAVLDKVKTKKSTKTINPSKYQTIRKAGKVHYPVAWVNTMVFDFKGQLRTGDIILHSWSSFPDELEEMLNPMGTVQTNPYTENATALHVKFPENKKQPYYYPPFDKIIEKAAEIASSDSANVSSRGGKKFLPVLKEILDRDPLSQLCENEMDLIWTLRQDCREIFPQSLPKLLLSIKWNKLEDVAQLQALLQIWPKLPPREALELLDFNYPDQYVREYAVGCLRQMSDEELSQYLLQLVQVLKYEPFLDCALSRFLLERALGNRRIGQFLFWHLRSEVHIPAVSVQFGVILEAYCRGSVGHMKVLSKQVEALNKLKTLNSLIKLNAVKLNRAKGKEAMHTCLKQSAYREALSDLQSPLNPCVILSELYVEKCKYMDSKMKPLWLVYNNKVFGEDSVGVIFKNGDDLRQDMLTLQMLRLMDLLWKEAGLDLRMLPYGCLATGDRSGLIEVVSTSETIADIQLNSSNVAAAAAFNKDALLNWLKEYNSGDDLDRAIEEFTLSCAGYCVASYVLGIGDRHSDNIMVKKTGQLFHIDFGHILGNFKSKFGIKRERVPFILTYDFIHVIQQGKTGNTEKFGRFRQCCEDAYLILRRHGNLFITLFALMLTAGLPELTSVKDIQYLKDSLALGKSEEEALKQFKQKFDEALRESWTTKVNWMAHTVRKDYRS
Sequence of PI3Kbeta (P27986 whole entry partner): as the sequence (P27986 whole entry partner) above

| IC50 (DNA-PK protein complex) | Kd [1] | IC50 [2] | IC50 (PI3Kbeta) | IC50 (PI3Kalpha) | SMILES |
| --- | --- | --- | --- | --- | --- |
| 100 to 10000 nM | 100 to 10000 nM | 100 to 10000 nM | 100 to 10000 nM | 100 to 10000 nM | Cn1cc(-c2cc(-c3cnc4ccccc4c3)ccn2)n(-c2ccc(N3CCNCC3)c(C(F)(F)F)c2)c1=O [Example A19, 1-Methyl-3-(4-piperazin-1-yl-3-trifluoromethylphenyl)-4-(4-quinolin-3-ylpyridin-2-yl)-1,3-dihydroimidazol-2-one] |
| 0.1 to 100 nM | 0.1 to 100 nM | 100 to 10000 nM | 100 to 10000 nM | 0.1 to 100 nM | CC(C)(C#N)c1ccc(-n2c(-c3cc(-c4cnc5[nH]ccc5c4)ccn3)c[nH]c2=O)cc1 [Example A28, 2-Methyl-2-(4-{2-oxo-5-[4-(1H-pyrrolo[2,3-b]pyridin-5-yl)pyridin-2-yl]-2,3-dihydroimidazol-1-yl}phenyl)propionitrile] |
| 0.1 to 100 nM | 0.1 to 100 nM | 100 to 10000 nM | 100 to 10000 nM | 0.1 to 100 nM | COC(=O)c1c[nH]c2ncc(-c3ccnc(-c4cn(C)c(=O)n4-c4ccc(C(C)(C)C#N)cc4)c3)cc12 [Example A29, Methyl 5-(2-{3-[4-(cyanodimethylmethyl)phenyl]-1-methyl-2-oxo-2,3-dihydro-1H-imidazol-4-yl}pyridin-4-yl)-1H-pyrrolo[2,3-b]pyridine-3-carboxylate] |
| 0.1 to 100 nM | 0.1 to 100 nM | > 10000 nM | 100 to 10000 nM | 100 to 10000 nM | Cn1cc(-c2cc(-c3cnc4[nH]ccc4c3)ccn2)n(-c2ccc(C(C)(C)C(=O)O)cc2)c1=O [Example A33, 2-Methyl-2-(4-{3-methyl-2-oxo-5-[4-(1H-pyrrolo[2,3-b]pyridin-5-yl)pyridin-2-yl]-2,3-dihydroimidazol-1-yl}phenyl)propionic acid] |
| 0.1 to 100 nM | 0.1 to 100 nM | 100 to 10000 nM | 100 to 10000 nM | 100 to 10000 nM | Cn1cc(-c2cc(-c3cnc(N)c(C#N)c3)ccn2)n(-c2ccc(C(C)(C)C#N)cc2)c1=O [Example A37, 6-Amino-2′-{3-[4-(cyanodimethylmethyl)phenyl]-1-methyl-2-oxo-2,3-dihydro-1H-imidazol-4-yl}-[3,4′]bipyridinyl-5-carbonitrile] |
| 100 to 10000 nM | 0.1 to 100 nM | 100 to 10000 nM | 100 to 10000 nM | 0.1 to 100 nM | Cn1cc(-c2cc(-c3cnc4[nH]cnc4c3)ccn2)n(-c2ccc(C(C)(C)C#N)cc2)c1=O [Example A38, 2-(4-{5-[4-(3H-Imidazo[4,5-b]pyridin-6-yl)pyridin-2-yl]-3-methyl-2-oxo-2,3-dihydroimidazol-1-yl}phenyl)-2-methylpropionitrile] |
| 0.1 to 100 nM | 100 to 10000 nM | 100 to 10000 nM | 100 to 10000 nM | 100 to 10000 nM | Cn1cc(-c2cc(-c3cnc4[nH]ccc4c3)ccn2)n(-c2ccc(C#N)cc2)c1=O [Example A48, 4-{3-Methyl-2-oxo-5-[4-(1H-pyrrolo[2,3-b]pyridin-5-yl)pyridin-2-yl]-2,3-dihydro-imidazol-1-yl}benzonitrile] |
| 100 to 10000 nM | 0.1 to 100 nM | 100 to 10000 nM | 100 to 10000 nM | 100 to 10000 nM | Cn1cc(-c2cc(-c3cnc(N)c(C(F)(F)F)c3)ccn2)n(-c2ccc(N3CCNCC3)c(C(F)(F)F)c2)c1=O [Example A56, 4-(6-Amino-5-trifluoromethyl-[3,4′]bipyridinyl-2′-yl)-1-methyl-3-(4-piperazin-1-yl-3-trifluoromethylphenyl)-1,3-dihydroimidazol-2-one] |
| 100 to 10000 nM | 100 to 10000 nM | 100 to 10000 nM | 100 to 10000 nM | 100 to 10000 nM | Cn1cc(-c2cc(-c3ccc4[nH]ccc4c3)ccn2)n(-c2ccc(N3CCNCC3)c(C(F)(F)F)c2)c1=O [Example A57, 4-[4-(1H-Indol-5-yl)pyridin-2-yl]-1-methyl-3-(4-piperazin-1-yl-3-trifluoromethyl-phenyl)-1,3-dihydroimidazol-2-one] |
| 0.1 to 100 nM | 0.1 to 100 nM | 100 to 10000 nM | 100 to 10000 nM | 100 to 10000 nM | Cn1cc(-c2cc(-c3ccc(N)nc3)ccn2)n(-c2ccc(N3CCNCC3)c(C(F)(F)F)c2)c1=O [Example A59, 4-(6-Amino-[3,4′]bipyridinyl-2′-yl)-1-methyl-3-(4-piperazin-1-yl-3-trifluoromethyl-phenyl)-1,3-dihydroimidazol-2-one] |
| 0.1 to 100 nM | > 10000 nM | > 10000 nM | > 10000 nM | > 10000 nM | Cn1cc(-c2cc(-c3ccc(NS(C)(=O)=O)cc3)ccn2)n(-c2ccc(N3CCNCC3)c(C(F)(F)F)c2)c1=O [Example A62, N-(4-{2-[1-Methyl-2-oxo-3-(4-piperazin-1-yl-3-trifluoromethylphenyl)-2,3-dihydro-1H-imidazol-4-yl]pyridin-4-yl}phenyl)methanesulfonamide] |
| 0.1 to 100 nM | 0.1 to 100 nM | 100 to 10000 nM | 100 to 10000 nM | 100 to 10000 nM | Cn1cc(-c2cc(-c3cnc(N)c(C(F)(F)F)c3)ccn2)n(-c2cccc(C#N)c2)c1=O [Example A64, 3-[5-(6-Amino-5-trifluoromethyl-[3,4′]bipyridinyl-2′-yl)-3-methyl-2-oxo-2,3-dihydroimidazol-1-yl]benzonitrile] |
| 0.1 to 100 nM | 0.1 to 100 nM | 100 to 10000 nM | 100 to 10000 nM | 100 to 10000 nM | Cn1cc(-c2cc(-c3cnc(N)c(C#N)c3)ccn2)n(-c2ccc(N3CCNCC3)c(C(F)(F)F)c2)c1=O [Example A65, 6-Amino-2′-[1-methyl-2-oxo-3-(4-piperazin-1-yl-3-trifluoromethylphenyl)-2,3-dihydro-1H-imidazol-4-yl]-[3,4′]bipyridinyl-5-carbonitrile] |
| > 10000 nM | > 10000 nM | > 10000 nM | > 10000 nM | > 10000 nM | CCc1cccc(-n2c(-c3cc(-c4cnc5[nH]ccc5c4)ccn3)cn(C)c2=O)c1 [Example A66, 3-(3-Ethylphenyl)-1-methyl-4-[4-(1H-pyrrolo[2,3-b]pyridin-5-yl)pyridin-2-yl]-1,3-dihydroimidazol-2-one] |
| 0.1 to 100 nM | 100 to 10000 nM | 100 to 10000 nM | 100 to 10000 nM | 100 to 10000 nM | Cn1cc(-c2cc(-c3cnc4[nH]ccc4c3)ccn2)n(-c2ccccc2C(F)(F)F)c1=O [Example A67, 1-Methyl-4-[4-(1H-pyrrolo[2,3-b]pyridin-5-yl)pyridin-2-yl]-3-(2-trifluoromethylphenyl)-1,3-dihydroimidazol-2-one] |
